Laboratory results taken from patent US20180064635A1, “COSMETIC COMPOSITION COMPRISING SLIME OF SNAIL FED WITH BERRY FRUITS AND PREPARATION METHOD THEREOF” (CREALAND CO., LTD, priority 2015, published 2018).

Assays:
[1] = Free radical scavenging test (DPPH); assay type: biochemical; conditions: snail slime filtrates, 37° C. 15 minutes, absorbance 540 nm
Method: A free radical scavenging test and a reactive oxygen scavenging test were performed in order to confirm the antioxidant effect of the snail slime filtrates prepared in Examples 1 and 2 and Comparative Examples 1 and 2, as a verifying test for a skin aging improvement effect.
The snail slime filtrates prepared in the above Examples 1 and 2 and Comparative Examples 1 and 2 were diluted with methanol in a predetermined concentration, and 1 ml of the dilution was mixed with 1 ml of a 0.1 mM 2,2-diphenyl-1-picryl-hydrazyl radical (DPPH, Sigma) solution. After the mixture leaves at 37° C. for 15 minutes, the absorbance was measured at the wavelength of 540 nm by using a microplate reader (Thermo max, USA).
In the above free radical scavenging test, the control group was measured In the same manner by inputting 1 ml of DPPH and 1 ml of methanol, and color correction values were obtained with respect to each of the sample and the control group by inputting 1 ml of methanol and 1 ml of sample.
SC50 is the concentration of the sample required to scavenge 50% of the free radicals, and the smaller value indicates the higher antioxidant activity.
Free radical scavenging rate (%)=100−((absorbance of sample/absorbance of control group)×100)

[2] = Active oxygen scavenging test (xanthine/xanthine oxidase, NBT); assay type: biochemical; conditions: snail slime filtrates, absorbance 540 nm
Method: In the active oxygen scavenging test, changes on the absorbance are measured using the oxidation of nitroblue tetrazolium (NBT) by active oxygen by using active oxygen generation upon enzymatic reaction of xanthine/xanthine oxidase (Sigma), thus the scavenging ability of the active oxygen can be confirmed.
2.4 ml of sodium carbonate (Na2CO3), 0.1 ml of xanthine (Sigma), 0.1 ml of ethylene diamine tetra acetic acid (EDTA), 0.1 ml of bovine serum albumin (BSA, Sigma), 0.1 ml of NBT, and 1 ml of the snail slime filtrates prepared in Examples 1 and 2 and Comparative Examples 1 and 2 were added, vortexing was carried out by using a vortex mixer (Type 37600 Mixer, Mini mix, USA), the mixture was left at 25° C. for 10 minutes. After 0.1 ml of xanthine oxidase was added and reacted at 25° C. for 20 minutes, the reaction was stopped by inputting 6 mM of CuCl2, and the absorbance was measured at the wavelength of 540 nm by using a microplate reader (UVT-06685, Thermo max, USA).
The control group in the active oxygen scavenging activity test was measured in the same manner by inputting third distilled water instead of the sample solution. […]
Active oxygen scavenging rate (%)=100−((absorbance of sample/absorbance of control group)×100)

[3] = Skin moisturizing effect, capacitance measurement on flexor surface of the forearm; assay type: in vivo, human (30 females in their 20s and 30s); conditions: 1 wt % aqueous solution, 2.0 mg/cm2
Method: Measurement of moisturizing effect of snail slime filtrates prepared in Examples 1 and 2 and Comparative Examples 1 and 2 was carried out by a capacitance measurement scheme using an oil and moisture analyzer (WSK-P500U, Inforward. Inc., Japan). 1 wt % an aqueous solution of the snail slime filtrates prepared in Examples 1 and 2 and Comparative Examples 1 and 2 was compared with 1 wt % aqueous solution of hyaluronic acid sodium salt (Sigma) which is known to be excellent in a skin moisturizing effect based on various studies.
30 females in their 20s and 30s were targeted, a flexor surface of the forearm was allowed to acclimate to a constant temperature and humidity chamber (22° C. and 40-60% of relative humidity) for 20 minutes right before the test starts, and the moisture of the skin was constantly maintained. Then, after measuring the initial moisture content of an application site of each sample using the oil and moisture analyzer (WSK-P500U, Inforward. Inc., Japan), each of the samples at 2.0 mg/cm2 was applied at a different position for each examinee to minimize an error according to the flexor surface of the forearm. The skin moisture was firstly measured at time intervals of 10 minutes, 30 minutes, 50 minutes, 90 minutes, and 120 minutes after the application, and after 2 hours, the skin moisture was measured again.
Each measurement site was measured repeatedly for three times and skin moisture was calculated by the average value.

Row | Active oxygen scavenging rate IC50 [2] | Compound | Free radical scavenging rate SC50 [1] | Moisture content subject to time after application ([3]; 10 minutes after application) | Moisture content subject to time after application ([3]; 30 minutes after application) | Moisture content subject to time after application ([3]; 50 minutes after application) | Moisture content subject to time after application ([3]; 90 minutes after application) | Moisture content subject to time after application ([3]; 120 minutes after application)
1 | 154 ppm | Cc1cc(C(C)(C)C)c(O)c(C(C)(C)C)c1 [BHT] | 125 ppm |  |  |  |  | 
2 |  | hyaluronic acid sodium salt |  | 61.31 A.U | 58.24 A.U | 57.21 A.U | 55.87 A.U | 52.11 A.U
